{"source": "patent US5464818A", "about": "(priority 1993, dated 1995)", "key": {"[1]": {"tested_on": "Clostridium perfringens FERM BP-4584 (7544S) cell growth-stimulating protein having proteinase activity (MW about 420,000)", "format": "biochemical"}, "[2]": {"tested_on": "Clostridium perfringens FERM BP-4584 (7544S) cell growth-stimulating protein having proteinase activity (MW about 420,000)", "format": "biochemical", "remark": "listed apart in the source"}, "[3]": {"conditions": "inhibitor conc. 0.01 mM, substrate Suc-Ala-Ala-Pro-Phe-MCA"}, "[4]": {"conditions": "inhibitor conc. 1.0 mM, substrate Suc-Ala-Ala-Pro-Phe-MCA"}}, "note": "Where two headings read alike, the source gives them in different places. *1 amine or outer side, *2 acyl side, *3 side chain or, on linkers, in order; H or OH if unused. Where a SMILES comes first, the peptide text is derived from it. [ ]: non-standard residue; d: D form. The star is where a group is joined. Sta = CC(C)C[C@H](N)[C@@H](O)CC(=O)O; AMC = Cc1cc(=O)oc2cc(N*)ccc12; Suc = O=C(CCC(=O)[*:2])[*:1]; Isovaleryl = CC(C)CC(=O)*"}
{"compound": "Chymostatin", "values": [{"measurement": "Residual activity", "setting": "[1]; [3]", "result": 62, "unit": "%"}]}
{"compound": "O=C(O)CI", "note": "[Iodoacetic acid]", "values": [{"measurement": "Residual activity", "setting": "[1]; inhibitor conc. 0.1 mM, substrate Suc-Ala-Ala-Pro-Phe-MCA", "result": 100, "unit": "%"}]}
{"compound": "Cc1cc(=O)oc2cc(NC(=O)[C@H](Cc3ccccc3)NC(=O)[C@@H]3CCCN3C(=O)[C@H](C)NC(=O)[C@H](C)NC(=O)CCC(=O)O)ccc12", "note": "[Suc--Ala--Ala--Pro--Phe--MCA, succinyl-alanyl-alanyl-prolyl-phenylalanine-4-methyl-coumaryl-7-amide] (Suc-AAPF-{AMC})", "values": [{"measurement": "Km", "setting": "[2]", "result": 4.2, "unit": "mM"}, {"measurement": "Vmax", "setting": "[2]; substrate Suc-Ala-Ala-Pro-Phe-MCA, optimum pH 6.2-7.0", "result": 230, "unit": "μ mol/min/mg"}]}
{"compound": "c1cnc2c(c1)ccc1cccnc12", "note": "[o-Phenanthroline]", "values": [{"measurement": "Residual activity", "setting": "[1]; [4]", "result": 85, "unit": "%"}]}
{"compound": "CC(C)CC(=O)N[C@H](C(=O)N[C@H](C(=O)N[C@@H](CC(C)C)[C@@H](O)CC(=O)N[C@@H](C)C(=O)N[C@@H](CC(C)C)[C@@H](O)CC(=O)O)C(C)C)C(C)C", "note": "[Pepstatin A] (Isovaleryl-VV[Sta]A[Sta]-OH)", "values": [{"measurement": "Residual activity", "setting": "[1]; [3]", "result": 103, "unit": "%"}]}
{"compound": "O=C(O)CN(CCN(CC(=O)O)CC(=O)O)CC(=O)O", "note": "[Ethylenediamine tetraacetic acid]", "values": [{"measurement": "Residual activity", "setting": "[1]; [4]", "result": 34, "unit": "%"}]}
{"compound": "Toluene sulfonylfluoride", "values": [{"measurement": "Residual activity", "setting": "[1]", "result": 1, "unit": "%"}]}
{"compound": "CC(C)C[C@H](NC(=O)N[C@H](C(=O)N[C@@H](CCC(N)=O)C(=O)N[C@@H](C)C=O)[C@@H]1CCNC(=N)N1)C(=O)O", "note": "[Elastatinal]", "values": [{"measurement": "Residual activity", "setting": "[1]; [3]", "result": 98, "unit": "%"}]}
